One test concerns the target T1, human TROP2 (Homo sapiens, UniProt P09758).
T1 sequence (P09758 27-323): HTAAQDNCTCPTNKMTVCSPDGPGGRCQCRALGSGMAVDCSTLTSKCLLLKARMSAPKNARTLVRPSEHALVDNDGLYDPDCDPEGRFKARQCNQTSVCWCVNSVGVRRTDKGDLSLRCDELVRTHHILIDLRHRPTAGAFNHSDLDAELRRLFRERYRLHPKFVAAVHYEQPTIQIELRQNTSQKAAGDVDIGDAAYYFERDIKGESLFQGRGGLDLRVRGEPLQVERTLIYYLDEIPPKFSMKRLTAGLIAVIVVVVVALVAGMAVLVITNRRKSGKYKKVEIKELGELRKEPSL
Kind of test: Surface plasmon resonance kinetics and affinities (Table 8B). The format is binding. To be noted: SPR, analyte TROP2. The method, then: Surface plasmon resonance (SPR) experiments were performed to determine the kinetics and affinities of certain antibodies shown in Table 8A.
In general terms: Surface plasmon resonance follows binding to a sensor surface in real time, without labels.

In the next test the test system is HCC38. Kind of test: In vitro cytotoxicity assay, HCC38. The format is cell-based. To be noted: HCC38 TROP2+ human mammary ductal carcinoma cell line. The method, then:
(§1) Additional in vitro cytotoxicity assays were performed to test the ability of DP002-HC1LC1-ADC to inhibit the growth of MDA-MB-468 (a TROP2^+ human breast adenocarcinoma cell line) and HCC38 (a TROP2^+ human mammary ductal carcinoma cell line).

The next test deals with MDA-MB-468. The test can be described thus: In vitro cytotoxicity assay, MDA-MB-468. The format is cell-based. Particulars: MDA-MB-468 TROP2+ human breast adenocarcinoma cell line. The method, then: as §1
Another test relates to BxPC-3. The test can be described thus: In vitro cytotoxicity assay, BxPC-3. The format is cell-based. Particulars: BxPC-3 human pancreatic adenocarcinoma cell line. The method, then: (§2) DP002-HC1LC1-ADC is an antibody-drug conjugate comprising anti-TROP antibody DP002-HC1LC1, which comprises HCl (SEQ ID NO: 52) and LC 1 (SEQ ID NO: 58), conjugated to monomethyl auristatin E (MMAE) at a drug-antibody ratio (DAR) of 2. A DP002-HC1LC1-ADC was prepared using a conjugation method described in WO 2015/191883. A series of in vitro cytotoxicity assays were performed to assess the ability of DP002-HC1LC1-ADC to inhibit the growth of the following TROP2 expressing cancer cell lines: HCC1954 (a human breast carcinoma cell line), BxPC-3 (a human pancreatic adenocarcinoma cell line), and NCI-N87 (a human gastric carcinoma cell line). Experiments using staurospirone, a positive apoptosis control, and anti-TROP2 antibody DP002-HC4LC5, which comprises HC4 (SEQ ID NO: 55) and LC5 (SEQ ID NO: 62), were performed in parallel.

The subject of the next test is NCI-N87. The test can be described thus: In vitro cytotoxicity assay, NCI-N87. The format is cell-based. Particulars: NCI-N87 human gastric carcinoma cell line. The method, then: as §2
For the next test, the system named is HCC1954. The test can be described thus: In vitro cytotoxicity assay, HCC1954. Particulars: HCC1954 human breast carcinoma cell line. The format is cell-based. The method, then:
as §2

In the next test the test system is SKBR3 cells. The test can be described thus: FACS internalization of anti-TROP2 antibodies by SKBR3 cells. The format is cell-based, human. Particulars: 20 nM antibody mixed with 60 nM pHAb-labelled secondary antibody, overnight incubation. The method, then: FACS experiments were performed to verify that antibodies 1B3, 15D9, 15A10, 17B6, and 17D1 were internalized by SKBR3 cells. SKBR3 is a TROP2-expressing human breast carcinoma cell line. Briefly, 1.2×10^5 SKBR3 cells were seeded into each 12-well plates and cultured overnight. 300 μL of 20 nM control antibody, 1B3, 15D9, 15A10, 17B6, or 17D1 (in DMEM-10) were mixed with 300 μL 60 nM pHAb-labelled secondary antibody for 15 minutes at room temperature in the dark. The labeled antibodies mixtures were added to the SKBR3 cells and incubated overnight. Following overnight incubation, the SKBR3 cells were trypsinized, washed twice with 1% BSA/PBS, and analyzed via flow cytometry.

A word on the Kd: it is the equilibrium constant for the complex coming apart. A low value points to a tighter complex. In the case of “Control: biosimilar of the anti-TROP2 antibody sacituzumab [reference compound]”, in the test with human TROP2, the dissociation constant Kd came to 0.4 nM, the Rmax is on record as 50.7, the “ka” value was found to be 511000 M⁻¹ s⁻¹ and the “kd” value is 0.000204 s⁻¹.

Broadly, the IC50 is the concentration needed to halve the response being measured. The low end stands for greater potency, the high end for weaker potency. In the case of `CN[C@@H]1C[C@H]2O[C@@](C)([C@@H]1OC)n1c3ccccc3c3c4c(c5c6ccccc6n2c5c31)C(=O)NC4` [Staurosprione, staurospirone], the IC50 in the test with HCC38 is 4.26 nM; in the test with MDA-MB-468, 14.7 nM; with BxPC-3, 5.37 nM; with NCI-N87 it was 9.31 nM; in the test with HCC1954 it was 21.7 nM. For the same molecule, the Max % inhibition with HCC38 is 99.44%; with MDA-MB-468, 92.38%; in the test with BxPC-3 it was 98.02%; with BxPC-3 (listed as staurospirone) it was “greater than 93%”; in the test with NCI-N87, 93.44%; with NCI-N87 (listed as staurospirone), “greater than 93%”. Further, the Max % inhibition in the test with HCC1954 was 95.12%; with HCC1954 (listed as staurospirone), “greater than 93%”.

B1: 1B3: mouse anti-human TROP2 antibody, VH SEQ ID NO: 22, VL SEQ ID NO: 27 (antibody, V domains shown)
VH: QVQLQQSGAELVRPGVSVKISCKGSGYTFTDYSINWVKQSHAKSLEWIGVISTYYGDASYNQKFKGKATMTVDKSSSTAYMELARLTSEDSAIYYCARYGDGYNQFDYWGQGTTLTVSS
VL: DIVLTQSPASLAVSLGQRATISCRVSESVDSYGNNFMHWYQQKPGQPPKLLIYRASNLESGVPARFSGSGSGTDFTLTINPMEADDVATYYCQQSYEDPYTFGGGTKLEIK
For B1, the “internalization by SKBR3 cells (flow cytometry)” value (“internalization by SKBR3 cells” for short) with SKBR3 cells is “internalized”.

B2: 17B6: mouse anti-human TROP2 antibody, VH SEQ ID NO: 26, VL SEQ ID NO: 31 (antibody, V domains shown)
VH: QVQLQQSGAELVRPGVSVKISCKGSGYTFTDYGMNWVKQSHAKSLEWIGVISTFYGDANYNQKFKGKATMTVDKSSSTAYMELARLTSEDSAIYYCARRGNYDSMDYWGQGTSVTVSS
VL: DIVLTQSPVFLAVSLGQRATISCRASESVDSYGNSFMHWYQQKPGQPPKLLIYRASNLESGIPARFSGSGSRTDFTLTINPVEADDVETYYCQQSYEDPPTFGGGTKLEIE
As to B2, the “internalization by SKBR3 cells” value with SKBR3 cells was “internalized”.

B3: 15D9: mouse anti-human TROP2 antibody, VH SEQ ID NO: 24, VL SEQ ID NO: 29 (antibody, V domains shown)
VH: QVQLQQSGAELVRPGVSVKISCKGSGYTFTDYSIHWVKQSHAKSLEWIGVISSYYGDATYNQKFKGKATMTVDKSSSTAYMELARLTSEDSAIYYCALLGAYNYFDYWGQGTTLTVSS
VL: DIVLTQSPASLAVSLGQRATISCRASESVDSYGNSFMHWYQQKPGQPPKLLVYRASNLESGIPARFSGSGSRTDFTLTINPVEADDVATYYCQQSYEDPPTFGGGTKLEIK
For B3, the “internalization by SKBR3 cells” value with SKBR3 cells was “internalized”.

B4: 17D1: mouse anti-human TROP2 antibody, VH SEQ ID NO: 25, VL SEQ ID NO: 30 (antibody, V domains shown)
VH: QVQLQQSGAELVRPGVSVKISCKGSGYTFTDYSIHWVKQSHAKSLEWIGLISTYYGDATYTQKFKGKATMTVDKSSSTAYMELARLTSEDSAIYYCALLGAYNYFDYWGQGTTLTVSS
VL: DIVLTQSPASLAVSLGQRATISCRASESVDSYGNSFMHWYQQKPGQPPKLLVYRASNLESGIPARFSGSGSRTDFTLTINPVEADDIATYYCQQSYEDPPTFGGGTKLEIK
Consider B4, for which the “internalization by SKBR3 cells” value in the test with SKBR3 cells is reported as “internalized”.

B5: 15A10: mouse anti-human TROP2 antibody, VH SEQ ID NO: 23, VL SEQ ID NO: 28 (antibody, V domains shown)
VH: EVQLEQSGPGLVQPSQSLSITCTVSGFSLTRYGVHWVRQSPGRSLEWLGVIWSGGNTDYNAAFISRLTITKDNSKSQVFFKMNSLQPNDTGVYYCAREDRYVGEFAYWGQGTLVTVSA
VL: DIVLTQSTASLAVSLGQRATISCRASESVDSYGNSFIHWYQQKPGQPPKLLIYRASNLESGIPARFSGSGSRTDFTLTINPVEADDVATYYCQQSNEDPRTFGGGTKLEIK
Regarding B5, the “internalization by SKBR3 cells” value in the test with SKBR3 cells is “internalized”.
